Test results published in PubChem BioAssay (NCI).
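Growth conditions: 96-well plates. Treatment: test compound, 48 hours, 5 concentrations. Analysis: linear interpolation between bracketing concentrations; unreached endpoints set to highest concentration. Here, GI50 denotes the concentration required for 50% inhibition of growth. The concentration for full growth arrest is given as TGI.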

Experiments:
Assay in all cases: DTP human tumour cell line panel, 48 h
RXF 393 renal = test system: RXF 393 renal
EKVX NSCLC = test system: EKVX NSCLC
M14 melanoma = test system: M14 melanoma
MOLT-4 leukemia = test system: MOLT-4 leukemia
DU-145 prostate = test system: DU-145 prostate
OVCAR-5 ovarian = test system: OVCAR-5 ovarian
SK-OV-3 ovarian = test system: SK-OV-3 ovarian
HT29 colon = test system: HT29 colon
SK-MEL-5 melanoma = test system: SK-MEL-5 melanoma
NCI-H522 lung = test system: NCI-H522 lung
TK-10 renal = test system: TK-10 renal
OVCAR-3 ovarian = test system: OVCAR-3 ovarian
RPMI-8226 leukemia = test system: RPMI-8226 leukemia
SF-295 CNS = test system: SF-295 CNS
PC-3 prostate = test system: PC-3 prostate
UACC-257 melanoma = test system: UACC-257 melanoma

Structure (SMILES) | TGI (RXF 393 renal) | TGI (EKVX NSCLC) | TGI (M14 melanoma) | TGI (MOLT-4 leukemia) | TGI (DU-145 prostate) | TGI (OVCAR-5 ovarian) | TGI (SK-OV-3 ovarian) | TGI (HT29 colon) | TGI (SK-MEL-5 melanoma) | TGI (NCI-H522 lung) | TGI (TK-10 renal) | TGI (OVCAR-3 ovarian) | TGI (RPMI-8226 leukemia) | TGI (SF-295 CNS) | TGI (PC-3 prostate) | TGI (UACC-257 melanoma) | GI50 (SK-MEL-5 melanoma)
CCCN(CCCCN1C(=O)c2ccccc2C1=O)CC1COc2ccccc2O1 (configuration not stated) | > 100 µM | > 100 µM | > 100 µM | 66.5 µM | > 100 µM | > 100 µM | > 100 µM | > 100 µM | > 100 µM | > 100 µM | > 100 µM | > 100 µM | 84.9 µM | > 100 µM | > 100 µM | > 100 µM | 
O=[N+]([O-])c1cccc2nc3ccccc3c(NCCCN3CCOCC3)c12 | 0.0294 µM | 0.0559 µM | 0.0233 µM | 24.2 µM | 0.0298 µM | 0.0841 µM | 0.267 µM | 0.0349 µM | 0.0263 µM | 0.0936 µM | 0.149 µM | 0.0484 µM | 0.187 µM | 0.0854 µM | 0.0684 µM | 0.0527 µM | 
CC(C)N=C(NC#N)NS(=O)(=O)c1cnccc1Nc1ccc(Cl)cc1 | > 100 µM | > 100 µM | > 100 µM | > 100 µM | > 100 µM | > 100 µM | > 100 µM | > 100 µM | > 100 µM | > 100 µM | > 100 µM | > 100 µM | > 100 µM | > 100 µM | > 100 µM | > 100 µM | 
COC(=NCCC1=CCCCC1)OC | > 100 µM | > 100 µM | 47.3 µM | > 100 µM | > 100 µM | > 100 µM | > 100 µM | 82.9 µM | > 100 µM | > 100 µM | > 100 µM | > 100 µM | 85.8 µM | > 100 µM | > 100 µM | > 100 µM | 
O=C1c2ccccc2C(=O)N1CCCCCCNOCCCN1C(=O)c2ccccc2C1=O | > 100 µM | > 100 µM | 61.4 µM | 38.7 µM | > 100 µM | > 100 µM | > 100 µM | > 100 µM | 30.8 µM | 79.3 µM | > 100 µM | > 100 µM | 99.4 µM | > 100 µM | > 100 µM | 86 µM | 
CC(=O)NCCc1c[nH]c2ccc(Cl)cc12 | > 100 µM | > 100 µM | > 100 µM | > 100 µM | > 100 µM | > 100 µM | > 100 µM | > 100 µM | > 100 µM | > 100 µM | > 100 µM | > 100 µM | > 100 µM | > 100 µM | > 100 µM | > 100 µM | 
Cn1cc(C[C@@H](N)C(=O)O)c2ccccc21 | > 100 µM | > 100 µM | > 100 µM | > 100 µM | > 100 µM | > 100 µM | > 100 µM | > 100 µM | > 100 µM | > 100 µM | > 100 µM | > 100 µM | > 100 µM | > 100 µM | > 100 µM | > 100 µM | > 100 µM
Cc1cc2c(cc1C)[n+](=O)c(C(=O)N1CCN(c3ccc([N+](=O)[O-])cc3)CC1)c(C)n2[O-] | 41.3 µM | 87.4 µM | > 100 µM | > 100 µM | > 100 µM | > 100 µM | 51.2 µM | > 100 µM | > 100 µM | > 100 µM | 40.4 µM | > 100 µM | > 100 µM | 31.6 µM | > 100 µM | > 100 µM | 
CN(C)CC(CO)(CN(C)C)CN(C)C | > 100 µM | > 100 µM | > 100 µM | > 100 µM | > 100 µM | > 100 µM | > 100 µM | > 100 µM | > 100 µM | > 100 µM | > 100 µM | > 100 µM | > 100 µM | > 100 µM | > 100 µM | > 100 µM | 
CC1OC(OC2C(O)COC(OC3C(C)OC(OC4C(OC(=O)[C@]56CCC(C)(C)C[C@@H]5C5=CCC7[C@@]8(C)C[C@H](O)[C@H](OC9OC(CO)C(O)C(OC%10OC(CO)C(O)C(O)C%10O)C9O)[C@@](C)(CO)[C@@H]8CC[C@@]7(C)[C@]5(C)CC6)OCC(O)C4O)C(O)C3OC3OCC(O)C(O)C3O)C2O)C(O)C(O)C1O (some centres not stated) | 21.6 µM | 15.6 µM | 3.58 µM | 36.1 µM | 19.7 µM | 22.8 µM | 29.4 µM | 33.9 µM | 15 µM | 26.4 µM | 22.7 µM | 27.2 µM | 76.8 µM | 9.81 µM | 16.1 µM | 16.8 µM | 
COc1cc(C(N)=O)cc(NC(=O)/C=C/c2ccccc2)c1OC | > 100 µM | > 100 µM | > 100 µM | > 100 µM | > 100 µM | > 100 µM | > 100 µM | > 100 µM | > 100 µM | > 100 µM | > 100 µM | > 100 µM | > 100 µM | > 100 µM | > 100 µM | > 100 µM | 
